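Five compound concentrations were applied to cells in 96-well plates for 48 hours; endpoints were derived by simple linear interpolation of the resulting dose-response curve. TGI marks complete inhibition of growth.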
Legend:
Assay in all cases: NCI tumour cell line growth inhibition, 48 h
[1] = system: HCT-15 colon
[2] = system: OVCAR-4 ovarian
[3] = system: OVCAR-3 ovarian
[4] = system: K-562 leukemia
[5] = system: HOP-62 NSCLC
[6] = system: SF-295 CNS
[7] = system: UO-31 renal
[8] = system: MALME-3M melanoma
[9] = system: PC-3 prostate
[10] = system: RXF 393 renal
[11] = system: OVCAR-5 ovarian
[12] = system: NCI/ADR-RES ovarian
[13] = system: HT29 colon
[14] = system: ACHN renal
[15] = system: M14 melanoma
[16] = system: HCT-116 colon
[17] = system: SW-620 colon
[18] = system: SNB-75 CNS
[19] = system: UACC-62 melanoma
[20] = system: LOX IMVI melanoma
[21] = system: SK-MEL-2 melanoma
[22] = system: HOP-92 NSCLC
[23] = system: SNB-19 CNS
[24] = system: MDA-MB-231 breast
[25] = system: SN12C renal
[26] = system: MOLT-4 leukemia
[27] = system: MDA-N
[28] = system: IGROV1 ovarian
[29] = system: HCC-2998 colon
[30] = system: U251 CNS
[31] = system: 786-0 renal
[32] = system: OVCAR-8 ovarian
[33] = system: EKVX NSCLC
[34] = system: KM12 colon
[35] = system: MDA-MB-435
[36] = system: SK-MEL-28 melanoma
[37] = system: UACC-257 melanoma
[38] = system: SK-OV-3 ovarian
[39] = system: DU-145 prostate
[40] = system: TK-10 renal
[41] = system: CAKI-1 renal
[42] = system: BT-549 breast
[43] = system: SF-268 CNS
[44] = system: COLO 205 colon
[45] = system: NCI-H522 lung
[46] = system: HS 578T breast
[47] = system: NCI-H460 lung
[48] = system: SK-MEL-5 melanoma
[49] = system: CCRF-CEM leukemia
[50] = system: MCF7 breast
[51] = system: T-47D breast
[52] = system: A549 NSCLC
[53] = system: NCI-H23 lung
[54] = system: NCI-H226 lung
[55] = system: HL-60(TB) leukemia
[56] = system: A498 renal
[57] = system: RPMI-8226 leukemia
[58] = system: SR leukemia
[59] = system: SF-539 CNS

Brc1cccc(Nc2ncnc3sc4c(c23)CCC(Nc2cccc(Br)c2)C4)c1 (stereo not drawn)
TGI [1]: > 100 µM | TGI [2]: > 100 µM | TGI [3]: > 100 µM | TGI [4]: > 100 µM | TGI [5]: > 100 µM | TGI [6]: > 100 µM | TGI [7]: > 100 µM | TGI [8]: > 100 µM | TGI [9]: > 100 µM | TGI [10]: > 100 µM | TGI [11]: > 100 µM | TGI [12]: > 100 µM | TGI [13]: > 100 µM | TGI [14]: > 100 µM | TGI [15]: > 100 µM | TGI [16]: > 100 µM | TGI [17]: > 100 µM | TGI [18]: > 100 µM | TGI [19]: > 100 µM | TGI [20]: > 100 µM | TGI [21]: > 100 µM | TGI [22]: > 100 µM | TGI [23]: > 100 µM | TGI [24]: > 100 µM | TGI [25]: > 100 µM | TGI [26]: > 100 µM | TGI [27]: > 100 µM | TGI [28]: > 100 µM | TGI [29]: > 100 µM | TGI [30]: > 100 µM | TGI [31]: > 100 µM | TGI [32]: > 100 µM | TGI [33]: > 100 µM | TGI [34]: > 100 µM | TGI [35]: > 100 µM | TGI [36]: > 100 µM | TGI [37]: > 100 µM | TGI [38]: > 100 µM | TGI [39]: > 100 µM | TGI [40]: > 100 µM | TGI [41]: > 100 µM | TGI [42]: > 100 µM | TGI [43]: > 100 µM | TGI [44]: > 100 µM | TGI [45]: > 100 µM | TGI [46]: > 100 µM | TGI [47]: > 100 µM | TGI [48]: > 100 µM | TGI [49]: > 100 µM | TGI [50]: > 100 µM | TGI [51]: > 100 µM | TGI [52]: > 100 µM | TGI [53]: > 100 µM

CCN(CC)CCSc1n[nH]c(-c2c[nH]c3nc(C)ccc3c2=O)n1
TGI [1]: > 100 µM | TGI [2]: > 100 µM | TGI [3]: > 100 µM | TGI [54]: > 100 µM | TGI [4]: > 100 µM | TGI [5]: > 100 µM | TGI [6]: > 100 µM | TGI [7]: > 100 µM | TGI [8]: > 100 µM | TGI [9]: > 100 µM | TGI [10]: > 100 µM | TGI [11]: > 100 µM | TGI [12]: > 100 µM | TGI [13]: > 100 µM | TGI [14]: > 100 µM | TGI [55]: > 100 µM | TGI [15]: > 100 µM | TGI [16]: > 100 µM | TGI [17]: > 100 µM | TGI [19]: > 100 µM | TGI [20]: > 100 µM | TGI [21]: > 100 µM | TGI [23]: > 100 µM | TGI [56]: > 100 µM | TGI [24]: > 100 µM | TGI [25]: > 100 µM | TGI [26]: > 100 µM | TGI [27]: > 100 µM | TGI [28]: > 100 µM | TGI [30]: > 100 µM | TGI [31]: > 100 µM | TGI [32]: > 100 µM | TGI [33]: > 100 µM | TGI [34]: > 100 µM | TGI [35]: > 100 µM | TGI [57]: > 100 µM | TGI [36]: > 100 µM | TGI [37]: > 100 µM | TGI [39]: > 100 µM | TGI [40]: > 100 µM | TGI [41]: > 100 µM | TGI [42]: > 100 µM | TGI [43]: > 100 µM | TGI [44]: > 100 µM | TGI [45]: > 100 µM | TGI [46]: > 100 µM | TGI [47]: > 100 µM | TGI [48]: > 100 µM | TGI [49]: > 100 µM | TGI [50]: > 100 µM | TGI [51]: > 100 µM | TGI [52]: > 100 µM | TGI [53]: > 100 µM

CC1=CSC(O)(c2ccc(Cl)cc2)c2noc(=O)n21 (stereo not drawn)
TGI [1]: > 100 µM | TGI [2]: > 100 µM | TGI [3]: > 100 µM | TGI [54]: > 100 µM | TGI [4]: > 100 µM | TGI [5]: > 100 µM | TGI [6]: > 100 µM | TGI [7]: > 100 µM | TGI [9]: > 100 µM | TGI [10]: > 100 µM | TGI [11]: > 100 µM | TGI [12]: > 100 µM | TGI [58]: > 100 µM | TGI [13]: > 100 µM | TGI [14]: > 100 µM | TGI [15]: > 100 µM | TGI [16]: > 100 µM | TGI [17]: > 100 µM | TGI [18]: > 100 µM | TGI [19]: > 100 µM | TGI [21]: > 100 µM | TGI [22]: > 100 µM | TGI [23]: > 100 µM | TGI [56]: > 100 µM | TGI [24]: > 100 µM | TGI [25]: > 100 µM | TGI [26]: > 100 µM | TGI [59]: > 100 µM | TGI [27]: > 100 µM | TGI [28]: > 100 µM | TGI [29]: > 100 µM | TGI [31]: > 100 µM | TGI [32]: > 100 µM | TGI [33]: > 100 µM | TGI [34]: > 100 µM | TGI [35]: > 100 µM | TGI [57]: > 100 µM | TGI [36]: > 100 µM | TGI [37]: 60.3 µM | TGI [38]: > 100 µM | TGI [39]: > 100 µM | TGI [40]: > 100 µM | TGI [41]: > 100 µM | TGI [42]: > 100 µM | TGI [43]: > 100 µM | TGI [44]: > 100 µM | TGI [47]: > 100 µM | TGI [48]: > 100 µM | TGI [50]: > 100 µM | TGI [51]: > 100 µM | TGI [52]: > 100 µM | TGI [53]: > 100 µM

CSC1=C(C#N)C(=O)N(c2ccc(Cl)cc2)C(=O)C1C#N (stereo not drawn)
TGI [1]: > 100 µM | TGI [2]: > 100 µM | TGI [3]: > 100 µM | TGI [54]: > 100 µM | TGI [4]: > 100 µM | TGI [5]: > 100 µM | TGI [6]: > 100 µM | TGI [7]: > 100 µM | TGI [8]: > 100 µM | TGI [9]: > 100 µM | TGI [10]: > 100 µM | TGI [11]: > 100 µM | TGI [58]: > 100 µM | TGI [13]: > 100 µM | TGI [14]: > 100 µM | TGI [55]: > 100 µM | TGI [15]: > 100 µM | TGI [16]: > 100 µM | TGI [17]: > 100 µM | TGI [19]: > 100 µM | TGI [20]: > 100 µM | TGI [21]: > 100 µM | TGI [22]: 76.9 µM | TGI [23]: > 100 µM | TGI [56]: > 100 µM | TGI [24]: > 100 µM | TGI [25]: > 100 µM | TGI [26]: > 100 µM | TGI [59]: > 100 µM | TGI [27]: > 100 µM | TGI [28]: > 100 µM | TGI [29]: > 100 µM | TGI [30]: > 100 µM | TGI [31]: > 100 µM | TGI [33]: > 100 µM | TGI [35]: > 100 µM | TGI [57]: > 100 µM | TGI [36]: > 100 µM | TGI [37]: > 100 µM | TGI [38]: > 100 µM | TGI [39]: > 100 µM | TGI [40]: > 100 µM | TGI [41]: > 100 µM | TGI [42]: > 100 µM | TGI [43]: > 100 µM | TGI [44]: > 100 µM | TGI [45]: > 100 µM | TGI [46]: > 100 µM | TGI [47]: > 100 µM | TGI [48]: > 100 µM | TGI [49]: > 100 µM | TGI [50]: > 100 µM | TGI [51]: > 100 µM | TGI [52]: > 100 µM | TGI [53]: > 100 µM
